Experimental data published in patent US8367873B2, “Phenyl-substituted bicyclooctane-1,3-dione derivatives” (Bayer Cropscience AG, priority 2008, dated 2013).

Legend:
Format in all cases: in vivo
Alopecurus myosuroides [1] = assay: Herbicidal pre-emergence action; settings: pre-emergence method, 80 g/ha, greenhouse, visual assessment vs untreated controls
Outline: (§1)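 Seeds sown in sandy loam and covered; WP-formulated compounds applied to the soil surface as aqueous suspension at 600 l/ha with 0.2% wetting agent, at varying rates. Greenhouse-grown; emergence damage scored visually after three weeks versus untreated controls (100% = plants dead, 0% = like control).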

Echinocloa crus-galli [2] = assay: Herbicidal pre-emergence action; settings: pre-emergence method, 80 g/ha, greenhouse, visual assessment vs untreated controls
Outline: as §1

Lolium multiflorum [3] = assay: Herbicidal pre-emergence action; settings: pre-emergence method, 80 g/ha, greenhouse, visual assessment vs untreated controls
Outline: as §1

Setaria viridis [4] = assay: Herbicidal pre-emergence action; settings: pre-emergence method, 80 g/ha, greenhouse, visual assessment vs untreated controls
Outline: as §1

Alopecurus myosuroides [5] = assay: Herbicidal post-emergence action; settings: post-emergence method, 80 g/ha
Outline: (§2)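 Greenhouse plants in sandy loam sprayed at the one-leaf stage, 2-3 weeks after sowing, with WP-formulated compound at varied rates in 600 l/ha water plus 0.2% wetting agent. Damage scored visually after about three weeks as percent effect versus untreated controls (100% = dead).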

Echinocloa crus-galli [6] = assay: Herbicidal post-emergence action; settings: post-emergence method, 80 g/ha
Outline: as §2

Lolium multiflorum [7] = assay: Herbicidal post-emergence action; settings: post-emergence method, 80 g/ha
Outline: as §2

Setaria viridis [8] = assay: Herbicidal post-emergence action; settings: post-emergence method, 80 g/ha
Outline: as §2

[9] = tested on: monocotylidonous and dicotylidonous weed and crop plants; assay: Herbicidal pre-emergence action (other test plants); settings: pre-emergence method, 80 g/ha, greenhouse, visual assessment vs untreated controls
Outline: as §1

[10] = tested on: monocotylidonous and dicotylidonous weed and crop plants; assay: Herbicidal post-emergence action (other test plants); settings: post-emergence method, 80 g/ha
Outline: as §2

Structure (SMILES) | herbicidal effect ALOMY (Alopecurus myosuroides [1]) | herbicidal effect ECHCG (Echinocloa crus-galli [2]) | herbicidal effect LOLMU (Lolium multiflorum [3]) | herbicidal effect SETVI (Setaria viridis [4]) | herbicidal effect against ALOMY (Alopecurus myosuroides) (Alopecurus myosuroides [5]) | herbicidal effect against ECHCG (Echinochloa crus-galli) (Echinocloa crus-galli [6]) | herbicidal effect against LOLMU (Lolium multiflorum) (Lolium multiflorum [7]) | herbicidal effect against SETVI (Setaria viridis) (Setaria viridis [8]) | herbicidal effect AVEFA [9] | herbicidal effect against AVEFA (Avena fatua) [10]
CCc1cc(C)cc(CC)c1C1=C(OC(=O)C(C)(C)CC)C2CC3(CC2C1=O)OCCCO3 (stereo not drawn) [I-b-30] | 100% | 100% | 100% | 90% | 20% | 100% | 100% | 90% | 70% | 100%
C=C1CC2C(=O)C(c3c(C)cc(C)cc3C)=C(OC(=O)C(C)(C)C)C2C1 (stereo not drawn) [I-b-37] | 90% | 70% | 70% | 70% | 0% | 90% | 70% | 90% | 40% | 0%
C=C1CC2C(=O)C(c3c(C)cc(C)cc3C)=C(OC(=O)C(C)C)C2C1 (stereo not drawn) [I-b-38] | 80% | 80% | 60% | 80% | 40% | 90% | 70% | 90% | 70% | 0%
Cc1cc(C)c(C2=C(OC(=O)C(C)C)C3CC4(CC3C2=O)OCCO4)c(C)c1 (stereo not drawn) [I-b-39] | 60% | 10% | 80% | 0% | 60% | 100% | 100% | 90% | 50% | 20%
Cc1cc(C)c(C2=C(OC(=O)C(C)(C)C)C3CC4(CC3C2=O)OCCCCO4)c(C)c1 (stereo not drawn) [I-b-40] | 90% | 50% | 100% | 30% | 40% | 90% | 100% | 80% | 50% | 20%
Cc1cc(C)c(C2=C(OC(=O)C(C)C)C3CC4(CC3C2=O)OCCCCO4)c(C)c1 (stereo not drawn) [I-b-41] | 50% | 0% | 100% | 50% | 40% | 100% | 100% | 80% | 40% | 0%
Cc1cc(C)c(C2=C(OC(=O)C(C)C)C3CC4(CC3C2=O)OCC(C)CO4)c(C)c1 (stereo not drawn) [I-b-43] | 90% | 20% | 90% | 60% | 100% | 90% | 100% | 100% | 40% | 80%
C=C1CC2C(=O)C(c3c(C)cc(C)cc3OC)=C(OC(=O)C(C)C)C2C1 (stereo not drawn) [I-b-62] | 50% | 70% | 70% | 80% | 30% | 100% | 90% | 90% | 40% | 0%
COc1cc(C)cc(C)c1C1=C(OC(=O)C(C)C)C2CC3(CC2C1=O)OCCCO3 (stereo not drawn) [I-b-64] | 60% | 0% | 100% | 90% | 100% | 100% | 100% | 100% | 50% | 100%
COc1cc(C)cc(C)c1C1=C(OC(=O)C(C)C)C2CC3(CC2C1=O)OCCO3 (stereo not drawn) [I-b-65] | 60% | 90% | 100% | 70% | 90% | 100% | 100% | 100% | 70% | 90%
CCc1cc(C)cc(C)c1C1=C(OC(C)=O)C2CC3(COC(C)(C)O3)CC2C1=O (stereo not drawn) [I-b-66] | 80% | 100% | 100% | 80% | 100% | 100% | 100% | 80% | 80% | 90%
CCC(=O)OC1=C(c2c(C)cc(C)cc2CC)C(=O)C2CC3(COC(C)(C)O3)CC12 (stereo not drawn) [I-b-67] | 90% | 100% | 100% | 90% | 100% | 100% | 100% | 90% | 90% | 70%
CCc1cc(C)cc(C)c1C1=C(OC(=O)C(C)C)C2CC3(COC(C)(C)O3)CC2C1=O (stereo not drawn) [I-b-69] | 100% | 100% | 100% | 80% | 90% | 100% | 100% | 60% | 80% | 10%
CCc1cc(C)cc(C)c1C1=C(OC(=O)C(C)(C)C)C2CC3(COC(C)(C)O3)CC2C1=O (stereo not drawn) [I-b-70] | 100% | 100% | 100% | 90% | 70% | 100% | 100% | 40% | 80% | 0%
C=C1CC2C(=O)C(c3c(C)cc(C)cc3CC)=C(OC(=O)C(C)C)C2C1 (stereo not drawn) [I-b-72] | 80% | 100% | 100% | 100% | 0% | 100% | 0% | 90% | 60% | 0%
C=C1CC2C(=O)C(c3c(C)cc(C)cc3CC)=C(OC(=O)C(C)(C)C)C2C1 (stereo not drawn) [I-b-73] | 80% | 90% | 100% | 100% | 0% | 100% | 70% | 100% | 80% | 0%
CCc1cc(C)cc(C)c1C1=C(OC(=O)C(C)(C)C)C2CC3(CC2C1=O)OCCCO3 (stereo not drawn) [I-b-74] | 60% | 100% | 100% | 70% | 80% | 100% | 100% | 80% | 60% | 80%
CCc1cc(C)cc(C)c1C1=C(OC(=O)C(C)(C)C)C2CC3(CC2C1=O)OCC=CCO3 (stereo not drawn) [I-b-75] | 60% | 100% | 100% | 70% | 100% | 100% | 100% | 100% | 60% | 90%
